Results as given in US20040248816A1, “Treatment of migraine” (Boehringer Ingelheim International GmbH, priority 2003, published 2004).

Test system: vasodilatation of the facial skin, induced by electrical ganglion stimulation
Assay: Facial skin blood flow: vasodilatation of the facial skin induced by electrical trigeminal ganglion stimulation
Type: in vivo, rat
Details: anaesthetised male Wistar rats, i.v. 5 minutes before the second stimulation, BIBN 4096 Cl 0.03 mg/kg, sumatriptan 1.0 mg/kg, combination (0.03 mg + 1.0 mg)/kg; for % of trigeminus stimulation: first stimulation as control, saline control 82.7 ± 4.4
Procedure: Measurement of the Facial Skin Blood Flow
The facial skin blood flow was measured by a modified method as described by Escott et al. (Escott, K. J., Beattie, D. T., Connor, H. E., Brain, S. D. (1995), Trigeminal ganglion stimulation increases facial skin blood flow in the rat: a major role for calcitonin gene-related peptide, Brain Research, 669(1), 93-99). Fasting male Wistar rats (strain CHbb:THOM, 280-320 g) were anaesthetised with sodium pentobarbitone (initially with 60 mg/kg i.p. and maintained throughout the experiment with an intraperitoneal infusion of 30 mg/kg/h through a 23 G needle using a solution of 10 mg/ml). Both sides of the buccal region of the facial skin were shaved and depilated with a commercially available depilatory cream (Pilca, Schwarzkopf & Henkel, 40551 Düsseldorf, Germany). The trachea was fitted with a cannula, and the animals were artificially ventilated (80 breaths per minute) with ambient air enriched with oxygen. The body temperature was maintained at 37° C. using an automatic heating pad. The left femoral artery and left femoral vein were fitted with cannulas for continuous measurement of the arterial blood pressure or the intravenous administration of test compounds. A neuromuscular blockade was obtained by intravenous administration of pancuronium bromide (1 mg/kg/0.5 ml, 5 minutes before each electrical stimulation). The heart rate was derived from the blood pressure signal. The blood pressure and heart rate were recorded continuously during the course of the experiment in order to assess the level of anaesthesia and monitor the cardiovascular activities of the pharmaceutical compositions used in this study.
The animals were placed in a stereotactic frame, and a longitudinal cut was made in the scalp. A small hole was drilled in the skull (on the left or right) and a bipolar electrode (Rhodes SNEX-100, obtained from David Kopf Instruments, Tujunga, 91042 Calif., USA) was lowered by means of a micromanipulator into the trigeminal ganglion (0.32 cm dorsally of the bregma, ±0.30 cm laterally of the centre line and 0.95 cm below the dural surface). The position of the electrodes in the trigeminal ganglia was checked visually at the end of each experiment after the removal of the brain. […] Microvascular changes in blood flow in the facial skin were measured by laser Doppler flow measurement using a Periflux Laser-Doppler system (PeriFLUX 4001, wavelength: 780 nm; time constant: 3 s; Perimed AB, Järfälla, S-17526, Sweden). […] Changes in blood flow were measured as flow in any desired units and expressed as the area under the flow curve (mm^2) according to Escott et al. (1995). […]

[1] = Rattus norvegicus, iv, versus saline solution control, read-out: % inhibition compared with the control value

## CNS(=O)(=O)Cc1ccc2[nH]cc(CCN(C)C)c2c1 [sumatriptan]
[1]
  inhibition at 1 mg/kg: 16.8%
  % of trigeminus stimulation: 68.8 ± 6.8%

## NCCCC[C@H](NC(=O)[C@@H](Cc1cc(Br)c(O)c(Br)c1)NC(=O)N1CCC(N2Cc3ccccc3NC2=O)CC1)C(=O)N1CCN(c2ccncc2)CC1 [BIBN 4096 Cl, 1-[N^2-[3,5-dibromo-N-[[4-(3,4-dihydro-2(1H)-oxoquinazolin-3-yl)-1-piperidinyl]-carbonyl]-D-tyrosyl]-L-lysyl]-4-(4-pyridinyl)-piperazine]
[1]
  inhibition at 0.03 mg/kg: 27.1%
  % of trigeminus stimulation: 60.3 ± 5.1%
